Experimental data published in patent US12097210B2, “Concomitant administration of glucocorticoid receptor modulators and CYP3A inhibitors” (Corcept Therapeutics, Inc., priority 2017, dated 2024).

How the values were obtained:
[1] = Example 2: PK of ketoconazole 400 mg single dose on Day 8 of mifepristone regimen; format: in vivo, human; settings: single 400 mg ketoconazole dose on Day 8
Excerpt: (§1) Subjects were discharged on Day 11.
(§2) Subjects were discharged on Day 11. Subjects in both cohorts returned to study center on Day 13 for safety monitoring, collection of the 120-hour PK draw, and completion of the Termination Visit procedures, followed by discharge from the study. To the extent possible, any adverse events deemed study drug-related and that were ongoing at the time of discharge from the study were followed-up to resolution or until a determination was made that the unresolved event was stable.
(§3) DURATION OF TREATMENT: Up to a total of 28 days, including up to 2 weeks screening, dosing on Days 1-8, safety observation, and PK sample collection through Day 13.
(§4) Additionally, comparisons were made between the PK results of cohort 1 and 2. Pharmacokinetic parameters Cmax, T½ and total AUC were calculated for plasma concentrations of ketoconazole following the single dose on Day 8. Descriptive statistics (count, mean, median, standard deviation, minimum, maximum, and % coefficient of variation) were provided. Ketoconazole concentrations were listed and summarized. GM means of Cmax and total AUC were compared for the single dose in this study to the combined data of reported 400 mg single doses of ketoconazole of healthy subjects from the literature.

CYP3A = settings: 38 published studies, 411 subjects; concomitantly administered CYP3A inhibitor; cited from earlier work
[2] = Example 3: effect of co-administration with mifepristone on ketoconazole PK; format: in vivo, human
Description: (§5) A single dose of ketoconazole was administered on Day −1.
(§6) The study was a two period study design.

clinical = settings: male, human, in vivo
Description: This study was conducted in accordance with Good Clinical Practice under the guidance of an Institutional Review Board and in accordance with applicable local legal and regulatory requirements.
KORLYM® was supplied in 300 mg tablets for oral administration. Three or four tablets were administered once daily (OD) to provide either the 900 mg or 1200 mg per day dose.
Itraconazole was supplied • in 100 mg capsules for oral administration. Two capsules were administered once daily (OD) to provide the 200 mg per day dose.
All drug administrations were oral and were given after the morning meal.
The inclusion criteria required, among other criteria, that the subjects be healthy male subjects between the ages of 18 and 65, weigh more than 110 pounds, and have a body mass index (BMI) of 18 to 32 kg/m^2. The design included a Screening Period of up to 3 weeks (subjects were screened at a time between days −21 to −1 prior to the first treatment period), three 14-day treatment periods, and a Follow-Up (FU) Period of 14 days for safety observation.
Subjects meeting the inclusion criteria (n=22) were administered drug daily and blood samples were taken on the days indicated below during Periods 1-3 and on day 43 of the follow-up period.
Subjects presented at the Clinical Research Unit (CRU) after an 8-hour overnight fast, then predose PK samples were taken and other evaluations (predose electrocardiograms (ECGs), plasma cortisol and ACTH, serum chemistry tests) were performed. […] On the specific days indicated above, additional blood draws for determining 24-hour PK profiles were performed.
Pharmacokinetic (PK) parameters measured and computed included AUC (area under the concentration−time curve), AUC0-24 (AUC values from time 0 to 24 hours postdose), Cmax (maximum concentration), and Css (average steady-state concentration, calculated as AUC0-24/24).

[3] = Example 3: effect of ketoconazole 200 mg twice daily on PK of mifepristone 600 mg once daily and metabolites, with food; format: in vivo, human; settings: for concentrations on Day 17 compared with Day 12: 600 mg mifepristone daily with 200 mg ketoconazole twice daily vs mifepristone alone; for Ratio % Test/Reference, AUC0-24 / Ratio % Test/Reference, Cmax: Test: Day 17, 600 mg mifepristone OD + 200 mg Ketoconazole BID, Reference: Day 12, 600 mg mifepristone OD, geometric mean ratio
Description: as §5, §6
Concentrations of RU 42633 and RU 42848 were similar on Day 17 and Day 12.

[4] = Example 3: cross-study comparison of exposure with historic study of 1200 mg mifepristone OD; format: in vivo, human; settings: Test: Day 17, 600 mg mifepristone OD + 200 mg Ketoconazole BID; Reference: historic study Day 7, 1200 mg mifepristone OD alone; after 34% fat meal
[5] = Example 2: effect of a 400 mg single dose of ketoconazole on PK of an 8-day regimen of 300 mg or 600 mg OD mifepristone after moderate fat breakfast; format: in vivo, human; settings: 300 or 600 mg OD mifepristone
Description: This was an open-label study in healthy male subjects. […] The 400 mg single dose of ketoconazole was given to all subjects on day 8.
METHODOLOGY: Twelve subjects were enrolled, six in Cohort 1 and 6 in Cohort 2.
as §1, §2
DIAGNOSIS AND MAIN […] FOR INCLUSION: Healthy male volunteers between the ages of 18 to 45 years of age with a body mass index (BMI) ranging between 19 and 32 kg/m2 and a weight of at least 60 kg (132 lbs) were enrolled. Subjects had no clinically significant abnormal findings on the physical examination, ECG, blood pressure, heart rate, medical history, or clinical laboratory results during screening. The QTc interval at screening was less than 450 msec.
as §3, §4

[6] = 400 mg ketoconazole (200 mg twice per day) with 600 mg mifepristone per day
[7] = Test: Day 17, 600 mg mifepristone OD + 200 mg Ketoconazole BID, Reference: Day −1, 200 mg Ketoconazole single dose
[8] = 600 mg mifepristone OD + 200 mg ketoconazole BID

Row | Compound | increase of plasma levels (AUC) of orally administered midazolam (CYP3A) | AUC(0-t) (clinical; 900 mg) [ng·h/mL] | Cmax (clinical; 900 mg) [ng/mL] | AUC(0-t) (clinical; 1200 mg) [ng·h/mL] | Cmax (clinical; 1200 mg) [ng/mL] | change in exposure on co-administration with ketoconazole [3, 8] | concentrations on Day 17 compared with Day 12 [3] | Ratio % Test/Reference, AUC0-24 [3] [%] | Ratio % Test/Reference, Cmax [3] [%] | Ratio % Test/Ref, AUC0-24 [4] [%] | Ratio % Test/Ref, Cmax [4] [%] | further results
1 | CC(=O)N1CCN(c2ccc(OCC3COC(Cn4ccnc4)(c4ccc(Cl)cc4Cl)O3)cc2)CC1 (stereo not drawn) [Ketoconazole, 1-acetyl-4-[4-[[2-(2,4-dichlorophenyl)-2-[(1H-imidazol-1-yl)-methyl]-1,3-dioxolan-4-yl]methoxy]phenyl]piperazine] | more than 11 fold | – | – | – | – | – | – | – | – | – | – | ketoconazole half-life on either mifepristone regimen [1]: not appreciably different; increase in ketoconazole AUC with concomitant mifepristone [2, 6]: 253%; increase in ketoconazole Cmax with concomitant mifepristone [2, 6]: 365%; Ratio % Test/Reference, AUC [2, 7]: 365.36%; Ratio % Test/Reference, Cmax [2, 7]: 252.71%
2 | CC[C@H]1OC(=O)[C@H](C)[C@@H](O[C@H]2C[C@@](C)(OC)[C@@H](O)[C@H](C)O2)[C@H](C)[C@@H](O[C@@H]2O[C@H](C)C[C@H](N(C)C)[C@H]2O)[C@](C)(OC)C[C@@H](C)C(=O)[C@H](C)[C@@H](O)[C@]1(C)O [clarithromycin] | more than 6 fold | – | – | – | – | – | – | – | – | – | – | –
3 | CC#C[C@]1(O)CC[C@H]2[C@@H]3CCC4=CC(=O)CCC4=C3[C@@H](c3ccc(NC)cc3)C[C@@]21C [RU 42633, (8S,11R,13S,14S,17S)-17-hydroxy-13-methyl-11-[4-(methylamino)phenyl]-17-prop-1-ynyl-1,2,6,7,8,11,12,14,15,16-decahydrocyclopenta[a]phenanthren-3-one] | – | 40300 | 1970 | 45800 | 2160 | little change in exposure | similar | 102.33 | 105.73 | 91.34 | 96.31 | –
4 | CN(C)c1ccc([C@H]2C[C@@]3(C)[C@@H](CC[C@@]3(O)C#CCO)[C@@H]3CCC4=CC(=O)CCC4=C32)cc1 [RU 42698, (8S,11R,13S,14S,17S)-11-[4-(dimethylamino)phenyl]-17-hydroxy-17-(3-hydroxyprop-1-ynyl)-13-methyl-1,2,6,7,8,11,12,14,15,16-decahydrocyclopenta[a]phenanthren-3-one] | – | 15100 | 755 | 16900 | 853 | – | higher | 166.86 | 169.13 | 118.18 | 116.55 | mean metabolite exposure compared with mifepristone [5]: lower; mean increase in exposure on co-administration with ketoconazole [3, 8]: approximately 70%; share of the total steady-state AUC0-24 of mifepristone, RU42633, RU42698, RU42848 ([3]; in the presence of ketoconazole): 13%; share of the total steady-state AUC0-24 of mifepristone, RU42633, RU42698, RU42848 ([3]; mifepristone alone): 9%
5 | CC#C[C@]1(O)CC[C@H]2[C@@H]3CCC4=CC(=O)CCC4=C3[C@@H](c3ccc(N)cc3)C[C@@]21C [RU 42848, (8S,11R,13S,14S,17S)-11-(4-aminophenyl)-17-hydroxy-13-methyl-17-prop-1-ynyl-1,2,6,7,8,11,12,14,15,16-decahydrocyclopenta[a]phenanthren-3-one] | – | 33900 | 1630 | 36500 | 1770 | little change in exposure | similar | 94.88 | 95.48 | 81.43 | 82.45 | trough concentrations through the start of ketoconazole administration (Day 13) ([3]; FIG. 1, 600 mg mifepristone OD): increasing day-by-day
6 | CCC(C)n1ncn(-c2ccc(N3CCN(c4ccc(OCC5COC(Cn6cncn6)(c6ccc(Cl)cc6Cl)O5)cc4)CC3)cc2)c1=O (stereo not drawn) [itraconazole] | more than 7 fold | – | – | – | – | – | – | – | – | – | – | –
